What all share (assay type): binding
The target of test [1] is T1, HeLa cell extract proteins (Homo sapiens, UniProt A0FGR8).
T1 construct: endogenous in cells; host or cells: HeLa cell extract
T1 sequence (A0FGR8 1-921): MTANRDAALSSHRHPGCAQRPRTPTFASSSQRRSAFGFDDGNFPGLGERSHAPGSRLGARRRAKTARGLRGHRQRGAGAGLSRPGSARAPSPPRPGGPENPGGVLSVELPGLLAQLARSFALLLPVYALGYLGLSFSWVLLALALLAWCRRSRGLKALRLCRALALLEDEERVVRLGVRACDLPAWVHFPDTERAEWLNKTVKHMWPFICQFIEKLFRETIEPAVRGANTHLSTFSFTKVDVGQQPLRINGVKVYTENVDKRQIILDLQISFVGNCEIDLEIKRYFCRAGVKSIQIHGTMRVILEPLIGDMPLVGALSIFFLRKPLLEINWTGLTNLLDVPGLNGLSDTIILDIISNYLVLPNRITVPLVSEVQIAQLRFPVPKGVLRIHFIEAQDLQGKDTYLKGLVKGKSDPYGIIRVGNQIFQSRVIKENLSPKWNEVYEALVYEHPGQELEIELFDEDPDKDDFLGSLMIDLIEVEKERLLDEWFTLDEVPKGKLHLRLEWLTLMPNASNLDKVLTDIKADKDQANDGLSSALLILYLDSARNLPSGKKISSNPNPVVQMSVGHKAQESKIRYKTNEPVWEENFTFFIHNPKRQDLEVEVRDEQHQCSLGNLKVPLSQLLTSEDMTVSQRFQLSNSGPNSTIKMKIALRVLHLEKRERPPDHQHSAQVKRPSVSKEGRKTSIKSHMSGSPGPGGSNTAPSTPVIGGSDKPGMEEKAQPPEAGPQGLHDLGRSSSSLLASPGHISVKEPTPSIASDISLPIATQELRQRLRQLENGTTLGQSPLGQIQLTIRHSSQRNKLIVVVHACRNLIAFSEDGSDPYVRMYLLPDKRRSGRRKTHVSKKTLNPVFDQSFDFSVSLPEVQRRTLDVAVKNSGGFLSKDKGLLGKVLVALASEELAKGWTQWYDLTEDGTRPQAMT
As to conditions: HeLa; protein FAM62B.

Test [2] deals with T2, HeLa cell extract proteins (Homo sapiens, UniProt P43358).
T2 construct: endogenous in cells; host or cells: HeLa cell extract
T2 sequence (P43358 1-317): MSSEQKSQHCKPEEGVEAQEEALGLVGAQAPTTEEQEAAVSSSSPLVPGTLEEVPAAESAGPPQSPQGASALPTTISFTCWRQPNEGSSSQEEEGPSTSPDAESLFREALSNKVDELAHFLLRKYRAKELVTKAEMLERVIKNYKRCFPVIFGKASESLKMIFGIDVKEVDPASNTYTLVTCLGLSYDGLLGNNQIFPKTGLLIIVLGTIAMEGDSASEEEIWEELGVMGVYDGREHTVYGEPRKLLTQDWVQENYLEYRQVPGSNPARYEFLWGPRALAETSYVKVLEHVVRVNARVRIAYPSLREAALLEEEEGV
The following applies: protein MAGEA4; HeLa.

Test [3] has as its target T3, HeLa cell extract proteins (Homo sapiens, UniProt P25786).
T3 construct: endogenous in cells; host or cells: HeLa cell extract
As to conditions: protein PSMA1; HeLa.

The target in test [4] is T4, HeLa cell extract proteins (Homo sapiens, UniProt P12268).
T4 construct: endogenous in cells; host or cells: HeLa cell extract

Test [5] concerns the target T5, HeLa cell extract proteins (Homo sapiens, UniProt Q9UPU5).
T5 construct: endogenous in cells; host or cells: HeLa cell extract

Test [6] deals with T6, HeLa cell extract proteins (Homo sapiens, UniProt Q15386).
T6 construct: endogenous in cells; host or cells: HeLa cell extract
T6 sequence (Q15386 1-1083): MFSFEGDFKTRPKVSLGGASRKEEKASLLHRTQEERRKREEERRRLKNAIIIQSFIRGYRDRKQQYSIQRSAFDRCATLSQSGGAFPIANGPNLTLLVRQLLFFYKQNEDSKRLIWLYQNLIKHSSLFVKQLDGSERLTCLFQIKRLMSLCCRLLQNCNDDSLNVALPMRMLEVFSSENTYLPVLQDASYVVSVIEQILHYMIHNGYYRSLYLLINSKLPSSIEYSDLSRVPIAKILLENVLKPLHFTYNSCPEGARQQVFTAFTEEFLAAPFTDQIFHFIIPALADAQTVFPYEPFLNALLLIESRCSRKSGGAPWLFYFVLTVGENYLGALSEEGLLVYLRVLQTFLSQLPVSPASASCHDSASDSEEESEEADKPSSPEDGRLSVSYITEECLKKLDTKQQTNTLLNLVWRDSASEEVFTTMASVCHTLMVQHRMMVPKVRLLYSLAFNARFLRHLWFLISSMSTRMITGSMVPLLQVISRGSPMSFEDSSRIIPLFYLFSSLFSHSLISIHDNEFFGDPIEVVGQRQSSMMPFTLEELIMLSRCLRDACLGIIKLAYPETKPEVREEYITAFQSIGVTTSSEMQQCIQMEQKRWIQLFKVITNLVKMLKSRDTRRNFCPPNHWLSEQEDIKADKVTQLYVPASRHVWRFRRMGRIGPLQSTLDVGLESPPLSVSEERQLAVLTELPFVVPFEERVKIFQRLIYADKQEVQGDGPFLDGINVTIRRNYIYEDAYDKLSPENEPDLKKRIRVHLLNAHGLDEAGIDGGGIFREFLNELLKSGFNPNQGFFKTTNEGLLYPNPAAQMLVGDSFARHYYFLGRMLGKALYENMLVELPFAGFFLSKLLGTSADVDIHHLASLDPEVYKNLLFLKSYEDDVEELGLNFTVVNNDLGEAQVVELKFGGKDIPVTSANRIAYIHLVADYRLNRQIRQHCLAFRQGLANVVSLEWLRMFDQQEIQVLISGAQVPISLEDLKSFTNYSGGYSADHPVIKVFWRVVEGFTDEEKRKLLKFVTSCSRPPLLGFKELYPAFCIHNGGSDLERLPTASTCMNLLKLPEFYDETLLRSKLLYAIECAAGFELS

Like-named read-outs stand apart in the source and are kept apart here.

T3 sequence (P25786 whole entry): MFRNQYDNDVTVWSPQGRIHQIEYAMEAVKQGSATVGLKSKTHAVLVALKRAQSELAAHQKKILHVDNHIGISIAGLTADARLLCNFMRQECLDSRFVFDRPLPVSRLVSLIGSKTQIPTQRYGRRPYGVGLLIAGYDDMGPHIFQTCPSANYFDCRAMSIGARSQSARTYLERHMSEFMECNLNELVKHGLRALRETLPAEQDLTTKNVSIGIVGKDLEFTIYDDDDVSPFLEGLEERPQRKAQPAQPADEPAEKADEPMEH
T5 sequence (Q9UPU5 whole entry): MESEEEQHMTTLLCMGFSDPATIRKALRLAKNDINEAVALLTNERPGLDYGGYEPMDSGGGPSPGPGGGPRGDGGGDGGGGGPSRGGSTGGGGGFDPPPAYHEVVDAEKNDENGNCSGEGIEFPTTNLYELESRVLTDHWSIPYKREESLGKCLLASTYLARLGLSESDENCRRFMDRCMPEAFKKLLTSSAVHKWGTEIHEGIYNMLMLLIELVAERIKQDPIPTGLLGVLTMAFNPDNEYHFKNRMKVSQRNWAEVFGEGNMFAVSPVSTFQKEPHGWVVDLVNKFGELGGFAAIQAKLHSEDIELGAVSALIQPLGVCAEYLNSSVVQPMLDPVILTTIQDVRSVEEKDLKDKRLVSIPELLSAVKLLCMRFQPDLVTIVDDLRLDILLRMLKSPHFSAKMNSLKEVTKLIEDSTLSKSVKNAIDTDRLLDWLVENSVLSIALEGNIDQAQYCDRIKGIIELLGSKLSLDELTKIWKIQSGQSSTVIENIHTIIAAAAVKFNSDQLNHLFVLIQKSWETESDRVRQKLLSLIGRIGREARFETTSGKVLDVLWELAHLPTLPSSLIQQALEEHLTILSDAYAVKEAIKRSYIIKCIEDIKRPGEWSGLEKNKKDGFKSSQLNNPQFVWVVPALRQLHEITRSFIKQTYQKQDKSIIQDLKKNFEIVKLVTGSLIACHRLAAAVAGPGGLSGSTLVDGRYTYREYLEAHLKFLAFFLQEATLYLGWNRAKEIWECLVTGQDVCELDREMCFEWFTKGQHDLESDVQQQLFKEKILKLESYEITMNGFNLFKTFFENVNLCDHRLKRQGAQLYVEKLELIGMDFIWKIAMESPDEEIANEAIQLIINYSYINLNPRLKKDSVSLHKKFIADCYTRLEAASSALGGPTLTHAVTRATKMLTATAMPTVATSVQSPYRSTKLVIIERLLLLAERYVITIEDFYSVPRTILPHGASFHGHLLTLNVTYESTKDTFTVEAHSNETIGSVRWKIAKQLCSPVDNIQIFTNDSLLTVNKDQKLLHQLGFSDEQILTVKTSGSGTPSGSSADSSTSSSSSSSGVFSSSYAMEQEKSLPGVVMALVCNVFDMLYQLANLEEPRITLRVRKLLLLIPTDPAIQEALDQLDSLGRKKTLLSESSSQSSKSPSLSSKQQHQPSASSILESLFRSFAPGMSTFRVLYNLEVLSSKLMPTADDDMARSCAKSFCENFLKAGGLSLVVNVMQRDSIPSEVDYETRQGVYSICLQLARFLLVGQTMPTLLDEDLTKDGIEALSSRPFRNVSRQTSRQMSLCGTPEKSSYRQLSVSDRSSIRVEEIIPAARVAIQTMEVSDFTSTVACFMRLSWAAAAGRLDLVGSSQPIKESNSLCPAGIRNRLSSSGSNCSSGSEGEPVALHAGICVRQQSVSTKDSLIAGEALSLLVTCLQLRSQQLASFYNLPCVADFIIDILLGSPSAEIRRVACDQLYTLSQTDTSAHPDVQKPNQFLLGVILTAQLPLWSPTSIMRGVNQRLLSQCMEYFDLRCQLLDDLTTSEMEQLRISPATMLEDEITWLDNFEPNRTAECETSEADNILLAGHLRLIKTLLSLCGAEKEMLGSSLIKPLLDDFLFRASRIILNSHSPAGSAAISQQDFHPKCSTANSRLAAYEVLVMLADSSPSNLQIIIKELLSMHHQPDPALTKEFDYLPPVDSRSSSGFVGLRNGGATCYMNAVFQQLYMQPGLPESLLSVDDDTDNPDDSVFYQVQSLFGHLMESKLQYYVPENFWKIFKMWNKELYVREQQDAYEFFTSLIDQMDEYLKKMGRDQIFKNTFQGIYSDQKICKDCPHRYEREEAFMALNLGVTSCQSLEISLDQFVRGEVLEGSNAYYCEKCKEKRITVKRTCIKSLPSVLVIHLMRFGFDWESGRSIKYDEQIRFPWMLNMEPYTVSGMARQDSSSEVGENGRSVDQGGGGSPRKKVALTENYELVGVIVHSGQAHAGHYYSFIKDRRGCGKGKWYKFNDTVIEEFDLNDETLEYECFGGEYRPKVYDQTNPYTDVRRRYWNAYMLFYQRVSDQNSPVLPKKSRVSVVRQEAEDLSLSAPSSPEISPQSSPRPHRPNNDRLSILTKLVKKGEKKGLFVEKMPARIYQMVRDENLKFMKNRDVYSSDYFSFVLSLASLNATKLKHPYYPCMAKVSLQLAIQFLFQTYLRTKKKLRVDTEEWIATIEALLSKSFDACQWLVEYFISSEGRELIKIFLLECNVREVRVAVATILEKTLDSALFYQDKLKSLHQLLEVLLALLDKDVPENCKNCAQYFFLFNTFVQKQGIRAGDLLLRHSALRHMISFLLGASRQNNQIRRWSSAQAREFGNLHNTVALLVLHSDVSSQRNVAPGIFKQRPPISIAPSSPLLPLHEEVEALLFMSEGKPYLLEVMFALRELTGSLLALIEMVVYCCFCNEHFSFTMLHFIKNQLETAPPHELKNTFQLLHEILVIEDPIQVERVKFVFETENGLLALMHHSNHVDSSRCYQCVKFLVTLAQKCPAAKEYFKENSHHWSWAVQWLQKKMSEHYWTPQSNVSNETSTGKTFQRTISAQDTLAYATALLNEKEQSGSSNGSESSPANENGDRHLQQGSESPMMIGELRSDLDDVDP

With `CCCCCCOc1cccc(Cc2cnc(N)nc2N)c1` [compound 2], the “fold changes relative to vehicle control” value turned out to be 1.29 in test [1], 1.19 in test [2] and 1.36 in test [3].
For `NCCOCCOCC(=O)Nc1nc2ncc(CNc3ccc(C(=O)NC(CCC(=O)O)C(=O)O)cc3)nc2c(=O)[nH]1` (stereo not drawn) [compound 6], the “fold changes relative to vehicle control” value in test [4] (HeLa, protein IMPDH2) was found to be 1.18; in test [5] (protein USP24, HeLa) it was 1.01; in test [6] (HeLa, protein UBE3C) it was 1.01.
On to `CCCCCCOc1ccc(Cc2cnc(N)nc2N)cc1` [compound 1], for which the “fold changes relative to vehicle control” value in test [1] came out at 0.82; in test [2] it was 0.95; in test [3] it was 1.2.
In the case of `Nc1nc2c(c(=O)[nH]1)N(C=O)C(CNc1ccc(C(=O)N[C@@H](CCC(=O)O)C(=O)O)cc1)CN2` (stereo partly drawn) [LEU, leucovorin], the “fold changes relative to vehicle control” value in test [4] (HeLa, protein IMPDH2) worked out at 1.06; in test [5] (protein USP24, HeLa), 0.85; in test [6] (HeLa, protein UBE3C), 0.91.
On the same counts, the results for `NCCCNc1ccc(C(=O)NC(CCC(=O)O)C(=O)O)cc1` (stereo not drawn) [compound 7] are 1.03, 0.84 and 1.04.
As to `Nc1nc2[nH]cc(CCc3ccc(C(=O)N[C@@H](CCC(=O)O)C(=O)O)cc3)c2c(=O)[nH]1` [PTX, pemetrexed], the results for the “fold changes relative to vehicle control” value in test [4], in test [5] and in test [6] were 0.97, 0.89 and 0.96, respectively.
In the case of `Nc1nc2cccc(-c3ccccc3)c2n1Cc1ccc(Cl)c(Cl)c1` [compound 3], the “fold changes relative to vehicle control” value in test [1] came to 0.96; in test [2] it was 0.98; in test [3], 0.97.

For the origin of these results see article PMC6199744, “Development of Chemical Proteomics for the Folateome and Analysis of the Kinetoplastid Folateome” (ACS Infectious Diseases, 2018).
